# In US12570655B2, “Cysteine covalent modifiers of AKT1 and uses thereof” (Terremoto Biosciences, Inc., priority 2023, dated 2026):
# Columns and labels:
# Assay type in all cases: cell-based
# AKT1 WT = molecular target: T1, AKT1 WT (Homo sapiens, UniProt P31749); assay: Live cell AKT1 WT target engagement by NanoBRET competitive probe displacement; conditions: HEK293 cells transfected with kinase-NanoLuciferase fusion, 2 h at 37° C.
# T1 construct: expressed in transfected cells; host or cells: HEK293
# T1 sequence (P31749 whole entry, the tested form may be a part): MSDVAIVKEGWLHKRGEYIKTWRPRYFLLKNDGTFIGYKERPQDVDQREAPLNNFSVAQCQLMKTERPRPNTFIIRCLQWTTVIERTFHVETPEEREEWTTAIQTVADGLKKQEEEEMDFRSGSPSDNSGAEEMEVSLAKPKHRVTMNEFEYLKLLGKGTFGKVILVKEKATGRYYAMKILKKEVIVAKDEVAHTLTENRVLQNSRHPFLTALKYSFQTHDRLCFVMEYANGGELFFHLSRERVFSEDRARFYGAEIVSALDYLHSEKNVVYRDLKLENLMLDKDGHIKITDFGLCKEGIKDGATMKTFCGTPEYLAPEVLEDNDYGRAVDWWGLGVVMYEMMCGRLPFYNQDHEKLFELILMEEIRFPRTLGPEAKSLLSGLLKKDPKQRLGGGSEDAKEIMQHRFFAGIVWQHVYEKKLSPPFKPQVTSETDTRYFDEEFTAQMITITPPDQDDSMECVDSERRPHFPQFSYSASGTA
# Summary of the method: (§1)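 HEK293 cells transiently expressing kinase–NanoLuc fusions overnight; treated with serial compound dilutions plus fluorescent ATP-competitive tracer at ~EC50, 2 h at 37 °C. BRET ratio E600/E460 read after substrate and extracellular luciferase inhibitor; IC50 from log(inhibitor) vs response Hill fit.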
# AKT1 E17K = molecular target: T2, AKT1 E17K (Homo sapiens, UniProt P31749, E17K); assay: Live cell AKT1 E17K target engagement by NanoBRET competitive probe displacement; conditions: HEK293 cells transfected with kinase-NanoLuciferase fusion, 2 h at 37° C.
# T2 construct: expressed in transfected cells; host or cells: HEK293
# T2 sequence (P31749 whole entry E17K, the tested form may be a part): as the sequence (P31749 whole entry, the tested form may be a part) above, with E17K counted along it
# Summary of the method: as §1
# [1] = test system: LAPC4 prostate cancer cells; assay: Antiproliferative effects in LAPC4 cells (CellTiter Glo); conditions: Homo sapiens, LAPC4, 72 h, LAPC4 cells (AKT1 E17K allele), read-out: LAPC4 proliferation IC50
# Summary of the method: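 LAPC4 prostate cancer cells carrying AKT1 E17K, grown in IMDM with 12% FBS, were seeded at 1,000 cells/well and exposed to compound dilutions for 72 h. Viability was read as intracellular ATP by CellTiter Glo luminescence, and IC50 was fitted with a log(inhibitor) vs. response Hill equation.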
# AKT2 = molecular target: T3, AKT2 (Homo sapiens, UniProt P31751); assay: Live cell AKT2 target engagement by NanoBRET competitive probe displacement; conditions: HEK293 cells transfected with kinase-NanoLuciferase fusion, 2 h at 37° C.
# T3 construct: expressed in transfected cells; host or cells: HEK293
# T3 sequence (P31751 whole entry, the tested form may be a part): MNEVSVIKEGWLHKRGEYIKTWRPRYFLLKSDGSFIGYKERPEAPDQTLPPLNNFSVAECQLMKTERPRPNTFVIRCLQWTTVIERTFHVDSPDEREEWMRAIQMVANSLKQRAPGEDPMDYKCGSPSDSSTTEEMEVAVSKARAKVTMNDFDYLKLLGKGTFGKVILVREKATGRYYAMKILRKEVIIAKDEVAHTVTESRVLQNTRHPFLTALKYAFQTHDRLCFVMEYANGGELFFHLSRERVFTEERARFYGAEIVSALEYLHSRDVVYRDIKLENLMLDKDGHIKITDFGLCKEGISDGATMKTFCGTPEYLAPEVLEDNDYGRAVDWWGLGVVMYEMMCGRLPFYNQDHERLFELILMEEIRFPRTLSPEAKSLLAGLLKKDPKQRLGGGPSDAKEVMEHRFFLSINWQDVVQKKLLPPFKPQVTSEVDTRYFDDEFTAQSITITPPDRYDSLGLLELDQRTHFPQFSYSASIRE
# Summary of the method: as §1
IC50 (AKT1 WT),IC50 (AKT1 E17K),IC50 [1],IC50 (AKT2),SMILES
0.11 µM,0.312 µM,0.677 µM,1.19 µM,"CC(C)(C)/C=C/C(=O)N1CCC(N[C@H]2CCc3cc(-n4c(-c5cccnc5N)nc5ccc(-n6cccn6)nc54)ccc32)CC1 [Example 95, (S,E)-1-(4-((5-(2-(2-aminopyridin-3-yl)-5-(1H-pyrazol-1-yl)-3H-imidazo[4,5-b]pyridin-3-yl)-2,3-dihydro-1H-inden-1-yl)amino)piperidin-1-yl)-4,4-dimethylpent-2-en-1-one]"
0.058 µM,> 1 µM,3.65 µM,3.91 µM,"C/C=C/C(=O)N1CCC(N[C@H]2CCc3cc(-n4c(-c5cccnc5N)nc5ccc(-n6cccn6)nc54)ccc32)CC1 [Example 96, (S,E)-1-(4-((5-(2-(2-aminopyridin-3-yl)-5-(1H-pyrazol-1-yl)-3H-imidazo[4,5-b]pyridin-3-yl)-2,3-dihydro-1H-inden-1-yl)amino)piperidin-1-yl)but-2-en-1-one]"
0.0856 µM,0.582 µM,0.595 µM,3.59 µM,"C=CC(=O)N1CCC(N[C@@H]2c3ccc(-n4c(-c5cccnc5N)nc5ccc(-n6cccn6)nc54)cc3CC2(F)F)CC1 [Example 119, 1-(4-{[(1R)-5-[2-(2-aminopyridin-3-yl)-5-(pyrazol-1-yl)imidazo[4,5-b]pyridin-3-yl]-2,2-difluoro-1,3-dihydroinden-1-yl]amino}piperidin-1-yl)prop-2-en-1-one]"
0.0413 µM,0.112 µM,0.116 µM,0.305 µM,"Nc1ncccc1-c1nc2ccc(-n3cccn3)nc2n1-c1ccc2c(c1)CC[C@@H]2NC1CCN(C(=O)[C@H]2CO2)CC1 [Example 122, 3-{3-[(1S)-1-({1-[(2R)-oxirane-2-carbonyl]piperidin-4-yl}amino)-2,3-dihydro-1H-inden-5-yl]-5-(pyrazol-1-yl)imidazo[4,5-b]pyridin-2-yl}pyridin-2-amine]"
0.0309 µM,0.0424 µM,0.736 µM,0.393 µM,"Nc1ncccc1-c1nc2ccc(-n3cccn3)nc2n1-c1ccc2c(c1)CC[C@@H]2NC1CCN(C(=O)[C@@H]2CO2)CC1 [Example 123, 3-{3-[(1S)-1-({1-[(2S)-oxirane-2-carbonyl]piperidin-4-yl}amino)-2,3-dihydro-1H-inden-5-yl]-5-(pyrazol-1-yl)imidazo[4,5-b]pyridin-2-yl}pyridin-2-amine]"
0.0106 µM,0.00862 µM,0.0448 µM,0.043 µM,"CN(CC#N)C(=O)N1CCC(N[C@H]2CCc3cc(-n4c(-c5cccnc5N)nc5ccc(-n6cccn6)nc54)ccc32)CC1 [Example 128, 4-{[(1S)-5-[2-(2-aminopyridin-3-yl)-5-(pyrazol-1-yl)imidazo[4,5-b]pyridin-3-yl]-2,3-dihydro-1H-inden-1-yl]amino-N}-(cyanomethyl)-N-methylpiperidine-1-carboxamide]"
0.0235 µM,0.0608 µM,0.109 µM,0.189 µM,"C=CC(=O)N1CCC(N[C@@H]2CCc3cc(-n4c(-c5cccnc5N)nc5ccc(-n6cccn6)nc54)ccc32)CC1 [Example 149, 1-(4-{[(1R)-5-[2-(2-aminopyridin-3-yl)-5-(pyrazol-1-yl)imidazo[4,5-b]pyridin-3-yl]-2,3-dihydro-1H-inden-1-yl]amino}piperidin-1-yl)prop-2-en-1-one]"
0.0269 µM,0.168 µM,0.362 µM,1.08 µM,"C=CC(=O)N1CCC(N[C@H]2CCc3cc(-n4c(-c5cccnc5)nc5ccc(-n6cccn6)nc54)ccc32)CC1 [Example 153, (S)-1-(4-((5-(5-(1H-pyrazol-1-yl)-2-(pyridin-3-yl)-3H-imidazo[4,5-b]pyridin-3-yl)-2,3-dihydro-1H-inden-1-yl)amino)piperidin-1-yl)prop-2-en-1-one]"
0.301 µM,> 1 µM,> 10 µM,> 10 µM,"C=CC(=O)N1CCC(N[C@H]2CCCc3cc(-n4c(-c5cccnc5N)nc5ccc(-n6cccn6)nc54)ccc32)CC1 [Example 154, (S)-1-(4-((6-(2-(2-aminopyridin-3-yl)-5-(1H-pyrazol-1-yl)-3H-imidazo[4,5-b]pyridin-3-yl)-1,2,3,4-tetrahydronaphthalen-1-yl)amino)piperidin-1-yl)prop-2-en-1-one]"
0.0172 µM,0.0545 µM,0.11 µM,0.216 µM,"C=CC(=O)N1CCC(N[C@H]2CCc3cc(-n4c(-c5cccnc5N)nc5ccc(-n6cccn6)nc54)ccc32)C(C#N)C1 (stereo partly drawn) [Example 157, (3*,4*)-1-acryloyl-4-(((S)-5-(2-(2-aminopyridin-3-yl)-5-(1H-pyrazol-1-yl)-3H-imidazo[4,5-b]pyridin-3-yl)-2,3-dihydro-1H-inden-1-yl)amino)piperidine-3-carbonitrile]"
0.0726 µM,0.358 µM,1.09 µM,1.87 µM,"C=CC(=O)N1CC(N2CCC(N[C@H]3CCc4cc(-n5c(-c6cccnc6N)nc6ccc(-n7cccn7)nc65)ccc43)CC2)C1 [Example 158, (S)-1-(3-(4-((5-(2-(2-aminopyridin-3-yl)-5-(1H-pyrazol-1-yl)-3H-imidazo[4,5-b]pyridin-3-yl)-2,3-dihydro-1H-inden-1-yl)amino)piperidin-1-yl)azetidin-1-yl)prop-2-en-1-one]"

# The next lines start with the molecule.
SMILES,IC50 (AKT1 WT),IC50 (AKT1 E17K),IC50 [1],IC50 (AKT2)
"C=CC(=O)N1CCC(N[C@H]2CCc3cc(-n4c(-c5cccnc5N)nc5ccc(-c6ccn(C(F)F)n6)nc54)ccc32)CC1 [Example 107, 1-(4-{[(1S)-5-[2-(2-aminopyridin-3-yl)-5-[1-(difluoromethyl)pyrazol-3-yl]imidazo[4,5-b]pyridin-3-yl]-2,3-dihydro-1H-inden-1-yl]amino}piperidin-1-yl)prop-2-en-1-one]",0.00619 µM,0.0181 µM,0.164 µM,0.192 µM
"C=C(OC)C(=O)Nc1ccccc1C(=O)N[C@H]1CCc2cc(-n3c(-c4cccnc4N)nc4ccc(-n5cccn5)nc43)ccc21 [Example 108, (S)-N-(5-(2-(2-aminopyridin-3-yl)-5-(1H-pyrazol-1-yl)-3H-imidazo[4,5-b]pyridin-3-yl)-2,3-dihydro-1H-inden-1-yl)-2-(2-methoxyacrylamido)benzamide]",0.0102 µM,0.0424 µM,0.0943 µM,0.165 µM
"C=CC(=O)N1CCC(N[C@H]2CCc3cc(-n4c(-c5cccnc5N)nc5ccc(-c6ncco6)nc54)ccc32)CC1 [Example 109, (S)-1-(4-((5-(2-(2-aminopyridin-3-yl)-5-(oxazol-2-yl)-3H-imidazo[4,5-b]pyridin-3-yl)-2,3-dihydro-1H-inden-1-yl)amino)piperidin-1-yl)prop-2-en-1-one]",0.0249 µM,0.124 µM,3.16 µM,0.454 µM
"C=CC(=O)N1CCC(N[C@H]2CCc3cc(-n4c(-c5cccnc5N)nc5ccc(-c6cccnc6)nc54)ccc32)CC1 [Example 110, (S)-1-(4-((5-(2-(2-aminopyridin-3-yl)-5-(pyridin-3-yl)-3H-imidazo[4,5-b]pyridin-3-yl)-2,3-dihydro-1H-inden-1-yl)amino)piperidin-1-yl)prop-2-en-1-one]",0.0218 µM,0.141 µM,0.298 µM,0.628 µM
"C=CC(=O)N1CCC(N[C@H]2CCc3cc(-n4c(-c5cccnc5N)nc5ccc(-c6cnccn6)nc54)ccc32)CC1 [Example 120, (S)-1-(4-((5-(2-(2-aminopyridin-3-yl)-5-(pyrazin-2-yl)-3H-imidazo[4,5-b]pyridin-3-yl)-2,3-dihydro-1H-inden-1-yl)amino)piperidin-1-yl)prop-2-en-1-one]",0.0236 µM,0.185 µM,0.814 µM,0.885 µM
"C=CC(=O)N1CCC(N[C@H]2CCc3cc(-n4c(-c5cccnc5N)nc5ccc(-c6cc7n(n6)CCOC7)nc54)ccc32)CC1 [Example 121, (S)-1-(4-((5-(2-(2-aminopyridin-3-yl)-5-(6,7-dihydro-4H-pyrazolo[5,1-c][1,4]oxazin-2-yl)-3H-imidazo[4,5-b]pyridin-3-yl)-2,3-dihydro-1H-inden-1-yl)amino)piperidin-1-yl)prop-2-en-1-one]",0.0433 µM,0.174 µM,0.248 µM,0.358 µM
"C=CC(=O)N1CCC(N[C@H]2CCc3cc(-n4c(-c5ccccc5)nc5ccc(-n6cccn6)nc54)ccc32)CC1 [Example 152, (S)-1-(4-((5-(2-phenyl-5-(1H-pyrazol-1-yl)-3H-imidazo[4,5-b]pyridin-3-yl)-2,3-dihydro-1H-inden-1-yl)amino)piperidin-1-yl)prop-2-en-1-one]",> 1 µM,> 1 µM,> 10 µM,> 10 µM
"C=CC(=O)N1CCC(N[C@H]2CCc3cc(-n4c(-c5cccnc5N)nc5ccc(-c6nccs6)nc54)ccc32)CC1 [Example 159, 1-(4-{[(1S)-5-[2-(2-aminopyridin-3-yl)-5-(1,3-thiazol-2-yl)imidazo[4,5-b]pyridin-3-yl]-2,3-dihydro-1H-inden-1-yl]amino}piperidin-1-yl)prop-2-en-1-one]",0.02 µM,0.0562 µM,0.0712 µM,0.146 µM
"C=CC(=O)N1CCC(N[C@H]2CCc3cc(-n4c(-c5cccnc5N)nc5ccc(-c6cnn(C)n6)nc54)ccc32)CC1 [Example 160, 1-(4-{[(1S)-5-[2-(2-aminopyridin-3-yl)-5-(2-methyl-1,2,3-triazol-4-yl)imidazo[4,5-b]pyridin-3-yl]-2,3-dihydro-1H-inden-1-yl]amino}piperidin-1-yl)prop-2-en-1-one]",0.00931 µM,0.0269 µM,0.0274 µM,0.0296 µM
